ChEMBL document CHEMBL3822406, “Synthesis and evaluation of a series of 4-azaindole-containing p21-activated kinase-1 inhibitors” (Bioorg Med Chem Lett, 2016)
Values after ≈ are worked out from the molar mass of the structure shown. Blank lines part the entries; values can stand above or below the molecule they belong to.

Legend:
Hepatocyte = assay: Drug uptake in mouse hepatocytes measured at 30 secs relative to control; assay type: ADME, cell-based; details: 0.5 min
[1] = Kinetic solubility at pH 7.4 by high throughput assay; assay type: physicochemical; details: buffer, read-out: Kinetic_solubility
[2] = Half life in nude mouse at 2 mg/kg, iv; assay type: ADME, organism-based; details: in vivo
MDR1 (human) [3] = assay: Apparent permeability from apical to basolateral side in MDCK cells expressing human MDR1; assay type: ADME, cell-based, Canis lupus familiaris; details: dog
MDR1 (human) [4] = assay: Apparent permeability from basolateral to apical side in MDCK cells expressing human MDR1; assay type: ADME, cell-based, Canis lupus familiaris; details: dog
[5] = Lipophilicity, logD of compound at pH 7.4; assay type: physicochemical; details: buffer
[6] = Apparent permeability from apical to basolateral side in MDCK cells; assay type: ADME, cell-based, Canis lupus familiaris; details: dog
[7] = Fraction unbound in mouse plasma; assay type: ADME, cell-free
[8] = molecular target: Serine/threonine-protein kinase PAK 1/PAK 2/PAK 3 (Homo sapiens, UniProt O75914+Q13177+Q13153); assay: Inhibition of PAK1/2/3 in human EBC1 cells assessed as MEK1 phosphorylation level at Serine298 residue incubated for 2 hrs by HTRF assay; assay type: cell-based
[9] = Volume of distribution at steady state in nude mouse at 2 mg/kg, iv; assay type: ADME, organism-based; details: in vivo, read-out: Vdss
Mus musculus = assay: Unbound clearance in nude mouse at 2 mg/kg, iv; assay type: ADME, organism-based; details: in vivo
MDR1 (human) [10] = assay: Efflux ratio of apparent permeability from basolateral to apical side over apical to basolateral side in MDCK cells expressing human MDR1; assay type: ADME, cell-based, Canis lupus familiaris; details: dog
[11] = Plasma clearance in nude mouse at 2 mg/kg, iv; assay type: ADME, organism-based
[12] = molecular target: Serine/threonine-protein kinase PAK 1 (Homo sapiens, UniProt Q13153); assay: Inhibition of recombinant human GST-tagged PAK1 kinase domain expressed in baculovirus expression system assessed as suppression of phosphorylation of coumarin/fluorescein-labelled FRET peptide substrate at Ser/Thr19 residues preincubated with substrate for 10 mins followed by enzyme addition measured after 60 mins by Z-Lyte assay
Serine/threonine-protein kinase PAK 1, sequence (Q13153 whole entry, the tested form may be a part): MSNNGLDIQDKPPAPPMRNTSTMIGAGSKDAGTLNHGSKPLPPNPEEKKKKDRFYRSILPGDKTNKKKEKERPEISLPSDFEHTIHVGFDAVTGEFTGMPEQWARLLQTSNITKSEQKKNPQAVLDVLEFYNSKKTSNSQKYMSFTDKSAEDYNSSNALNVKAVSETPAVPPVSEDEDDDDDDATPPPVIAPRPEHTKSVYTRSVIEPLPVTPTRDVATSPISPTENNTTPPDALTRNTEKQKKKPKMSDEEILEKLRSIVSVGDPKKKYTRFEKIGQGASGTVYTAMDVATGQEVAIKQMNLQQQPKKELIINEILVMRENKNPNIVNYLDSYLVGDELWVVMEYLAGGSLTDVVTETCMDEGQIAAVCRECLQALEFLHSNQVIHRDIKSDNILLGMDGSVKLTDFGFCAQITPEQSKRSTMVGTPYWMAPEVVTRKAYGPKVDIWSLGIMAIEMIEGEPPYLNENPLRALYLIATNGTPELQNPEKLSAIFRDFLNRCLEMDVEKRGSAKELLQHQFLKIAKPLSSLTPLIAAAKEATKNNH

[13] = molecular target: Serine/threonine-protein kinase PAK 4 (Homo sapiens, UniProt O96013); assay: Inhibition of human recombinant GST-tagged PAK4 kinase domain (295 to 591 residues) expressed in baculovirus expression system assessed as suppression of phosphorylation of coumarin/fluorescein-labelled FRET peptide substrate at Ser/Thr19 residues preincubated with substrate for 10 mins followed by enzyme addition measured after 60 mins by Z-Lyte assay
Serine/threonine-protein kinase PAK 4, sequence (O96013 whole entry, the tested form may be a part): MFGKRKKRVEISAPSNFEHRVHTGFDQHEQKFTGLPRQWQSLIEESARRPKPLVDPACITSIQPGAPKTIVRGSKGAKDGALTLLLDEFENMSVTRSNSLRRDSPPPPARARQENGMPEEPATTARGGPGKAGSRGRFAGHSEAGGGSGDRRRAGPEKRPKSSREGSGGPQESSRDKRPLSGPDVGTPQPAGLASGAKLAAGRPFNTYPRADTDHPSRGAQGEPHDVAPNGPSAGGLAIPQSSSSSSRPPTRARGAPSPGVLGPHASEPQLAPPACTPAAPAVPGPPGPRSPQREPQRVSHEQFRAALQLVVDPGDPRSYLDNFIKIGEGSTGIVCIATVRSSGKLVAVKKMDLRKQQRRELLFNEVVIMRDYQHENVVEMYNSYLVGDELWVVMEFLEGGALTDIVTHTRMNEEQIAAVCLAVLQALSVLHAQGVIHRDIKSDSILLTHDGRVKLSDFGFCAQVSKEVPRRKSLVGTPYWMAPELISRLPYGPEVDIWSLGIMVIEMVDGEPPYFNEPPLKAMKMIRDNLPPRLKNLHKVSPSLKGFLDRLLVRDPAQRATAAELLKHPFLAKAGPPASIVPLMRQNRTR

[14] = Cmax in nude mouse at 25 mg/kg, po; assay type: ADME, organism-based; parameters: dose 25 mg/kg, route oral; details: in vivo
[15] = Oral bioavailability in nude mouse at 25 mg/kg; assay type: ADME, organism-based; details: in vivo
[16] = Tmax in nude mouse at 25 mg/kg, po; assay type: ADME, organism-based; details: in vivo

- solubility kinetic [1]: 69 µM (≈ 24.8 µg/mL)
- half-life [2]: 19.2 min
- Papp A→B (MDR1 (human) [3]): 0.5 ×10⁻⁶ cm/s
- Papp B→A (MDR1 (human) [4]): 14.6 ×10⁻⁶ cm/s
- logD [5]: 3.7
- Papp A→B [6]: 2 ×10⁻⁶ cm/s
- fraction unbound [7]: 0.008
- IC50 [8]: 120 nM
- Vd [9]: 4.5 L/kg
- CL free (Mus musculus): 20000 mL/min/kg
- efflux ratio (MDR1 (human) [10]): 27.7
- clearance [11]: 160 mL/min/kg
- fold change (FC) (Hepatocyte): 1.8
Structure (SMILES): C[C@H](Nc1nccc(Nc2cc(C3CC3)[nH]n2)n1)c1ccc2[nH]ccc2c1

- IC50 [12]: 685 nM
Structure (SMILES): C[C@@H](Nc1nccc(Nc2cc(C3CC3)[nH]n2)n1)c1ccc2[nH]ccc2n1

- IC50 [8]: 190 nM
- Ki [12]: 119 nM
Structure (SMILES): C[C@H](Nc1nccc(Nc2cc(C3CC3)[nH]n2)n1)c1nc2cc[nH]c2cc1Cl

- solubility kinetic [1]: 73 µM (≈ 26.3 µg/mL)
- Papp A→B [6]: 0.9 ×10⁻⁶ cm/s
- fraction unbound [7]: 0.039
- IC50 [8]: 68 nM
Structure (SMILES): C[C@H](Nc1nccc(Nc2cc(C3CC3)[nH]n2)n1)c1cc2cc[nH]c2cn1

- solubility kinetic [1]: 58 µM (≈ 21.9 µg/mL)
- Papp A→B [6]: 8.3 ×10⁻⁶ cm/s
- fraction unbound [7]: 0.014
- IC50 [8]: 57 nM
- Ki [12]: 4 nM
Structure (SMILES): C[C@H](Nc1nccc(Nc2cc(C3CC3)[nH]n2)n1)c1nc2cc[nH]c2cc1F

- Cmax [14]: 4.7 µM
- solubility kinetic [1]: 133 µM (≈ 47.9 µg/mL)
- half-life [2]: 37.8 min
- Papp A→B (MDR1 (human) [3]): 0.2 ×10⁻⁶ cm/s
- bioavailability [15]: 4.8%
- Papp B→A (MDR1 (human) [4]): 9.8 ×10⁻⁶ cm/s
- logD [5]: 2.7
- Papp A→B [6]: 4.3 ×10⁻⁶ cm/s
- fraction unbound [7]: 0.045
- IC50 [8]: 51 nM
- Ki [12]: 32 nM
- Vd [9]: 1.65 L/kg
- CL free (Mus musculus): 1067 mL/min/kg
- Tmax [16]: 34.8 min
- efflux ratio (MDR1 (human) [10]): 59
- clearance [11]: 48 mL/min/kg
- fold change (FC) (Hepatocyte): 2.7
Structure (SMILES): C[C@H](Nc1nccc(Nc2cc(C3CC3)[nH]n2)n1)c1ccc2[nH]ccc2n1

More lines, now with the values behind:

Structure (SMILES): C[n+]1ccc(-c2ccccc2)cc1
- fold change (FC) (Hepatocyte): 4.7

Structure (SMILES): C[C@H](Nc1nccc(Nc2cc(C3CC(F)(F)C3)[nH]n2)n1)c1ccc2[nH]ccc2n1
- IC50 [8]: 250 nM
- Ki [12]: 68 nM

Structure (SMILES): C[C@@H](c1ccc2[nH]ccc2n1)N(C)c1nccc(Nc2cc(C3CC3)[nH]n2)n1
- IC50 [8]: 240 nM
- Ki [12]: 18 nM

Structure (SMILES): C[C@H](Nc1nccc(Nc2cc(C3CC3)[nH]n2)n1)c1ccc2[nH]cc(Cl)c2n1
- IC50 [8]: 160 nM
- Ki [12]: 6 nM

Structure (SMILES): C[C@H](Nc1nccc(Nc2cc([C@@H]3C[C@H]3F)[nH]n2)n1)c1ccc2[nH]ccc2n1
- solubility kinetic [1]: 73 µM (≈ 27.6 µg/mL)
- Papp A→B [6]: 4.2 ×10⁻⁶ cm/s
- fraction unbound [7]: 0.047

Structure (SMILES): C[C@H](Nc1nccc(Nc2cc([C@H]3C[C@@H]3F)[nH]n2)n1)c1ccc2[nH]ccc2n1
- solubility kinetic [1]: 104 µM (≈ 39.4 µg/mL)
- Papp A→B [6]: 3.7 ×10⁻⁶ cm/s

Structure (SMILES): c1cc(Nc2cc(C3CC3)[nH]n2)nc(NCc2ccc3[nH]ccc3n2)n1
- Ki [12]: 120 nM
- Ki [13]: 505 nM

Structure (SMILES): CC[C@H](Nc1nccc(Nc2cc(C3CC3)[nH]n2)n1)c1ccc2[nH]ccc2n1
- IC50 [8]: 180 nM
- Ki [12]: 23 nM

Structure (SMILES): c1cc(Nc2cc(C3CC3)[nH]n2)nc(NCc2ccc3nccn3c2)n1
- Ki [12]: 360 nM

Structure (SMILES): O=C(O)C[C@H](O)C[C@H](O)/C=C/c1c(C2CC2)nc2ccccc2c1-c1ccc(F)cc1 [PITAVASTATIN]
- fold change (FC) (Hepatocyte): 6.6

Structure (SMILES): CCCCNC(=O)NS(=O)(=O)c1ccc(C)cc1 [TOLBUTAMIDE]
- fold change (FC) (Hepatocyte): 1.4
